In patent US11168078B2, “Sulfoximine, sulfonimidamide, sulfondiimine and diimidosulfonamide compounds as inhibitors of indoleamine 2,3-dioxygenase” (Shanghai Fochon Pharmaceutical Co., Ltd., priority 2016, dated 2021):

Target: T1, IDO (Homo sapiens, UniProt P14902)
T1 construct: endogenous in cells; host or cells: HeLa cells stimulated with recombinant human interferon-gamma
Assay: IDO Cell-Based LC/MS Assay
Details: Hela cells, 100 ng/mL recombinant human interferon-gamma, 20 hours, LC/MS readout
Source text: IDO Cell-Based LC/MS Assay
Materials: RPMI 1640 (phenol red free) (Invitrogen Cat. No. 11835030), Fetal Bovine Serum (Invitrogen Cat. No. 10099141), Penicillin-Streptomycin (Invitrogen Gibco Cat. No. 15140-122), recombinant human interferon-gamma (R&D system, Cat. No. 285-IF-100), 5% (w/v) trichloroacetic acid (Alfa Aesar Cat. No. All 156), DMSO (Sigma, Cat. No. D2650), 96 wells_compound plate (Axygen, Cat. No. WIPP02280), 96 wells_assay plate (Greiner, Cat. No. 655090)
The concentrations of test compounds varied from 5 μM to 0.76 nM with 3-fold dilution, 9 points, in duplicates.
Hela cells were seeded at 40,000 cells per well with RPMI/phenol red free media containing 10% FBS in a 96-well tissue culture plate. After adding compound to cells, 100 ng/mL of recombinant human interferon-gamma was added to activate IDO signaling. The cells were incubated for 20 hours in 37° C. incubator with 5% CO2. Compound treatment was stopped by adding 5% trichloroacetic acid. Subsequently, the cell plate was further incubated at 50° C. for 30 minutes. After precipitation, the supernatant was collected and measured by triple quadrupole mass spectrometer (AB Sciex 4000), coupled with HPLC Shimadzu EC 20 AD and autosampler CTC PAL. Curves are fit by XLFIT5 as % inhibition vs. log [compound concentration] using a 4 parameters logistic model 205.
(§1) Select compounds prepared as described above were assayed according to the biological procedures described herein.

T1 sequence (P14902 whole entry): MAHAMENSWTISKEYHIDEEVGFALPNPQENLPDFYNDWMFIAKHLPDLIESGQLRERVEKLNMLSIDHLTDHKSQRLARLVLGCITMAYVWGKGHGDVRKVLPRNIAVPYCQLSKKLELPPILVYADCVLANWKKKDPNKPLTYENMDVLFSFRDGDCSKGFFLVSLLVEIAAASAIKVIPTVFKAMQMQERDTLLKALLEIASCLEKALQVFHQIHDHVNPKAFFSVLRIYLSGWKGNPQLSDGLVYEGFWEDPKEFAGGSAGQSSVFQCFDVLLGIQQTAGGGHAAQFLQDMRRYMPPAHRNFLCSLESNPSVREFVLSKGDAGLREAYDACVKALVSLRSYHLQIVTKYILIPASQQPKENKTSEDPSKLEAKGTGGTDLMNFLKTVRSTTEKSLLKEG

| Structure (SMILES) | IC50 [nM] |
| --- | --- |
| CN=S(C)(=O)NCCNc1nonc1C(=NO)Nc1ccc(F)c(Br)c1 (stereo not drawn) [Example 11, (Z)—N-(3-bromo-4-fluorophenyl)-N′-hydroxy-4-((2-(N′-methylmethylsulfonoamidimidamido)ethyl)amino)-1,2,5-oxadiazole-3-carboximidamide] | 40 |
| CC(CNc1nonc1/C(=N/O)Nc1ccc(F)c(Br)c1)NS(C)(=N)=O (stereo not drawn) [Example 9, (Z)—N-(3-bromo-4-fluorophenyl)-N′-hydroxy-4-((2-(methylsulfonoimidamido)propyl)amino)-1,2,5-oxadiazole-3-carboximidamide] | 123 |
| O=S1(=NCCNc2nonc2/C(=N/O)Nc2ccc(F)c(Br)c2)CCCC1 [Example 5, (Z)—N-(3-bromo-4-fluorophenyl)-N′-hydroxy-4-((2-((1-oxidotetrahydro-1λ^6-thiophen-1-ylidene)amino)ethyl)amino)-1,2,5-oxadiazole-3-carboximidamide] | 195 |
| CS(=N)(=O)NCCCNc1nonc1C(=NO)Nc1ccc(F)c(Br)c1 (stereo not drawn) [Example 8, (Z)—N-(3-bromo-4-fluorophenyl)-N′-hydroxy-4-((3-(methylsulfonoimidamido)propyl)amino)-1,2,5-oxadiazole-3-carboximidamide] | 18.6 |
| CC(CNS(C)(=N)=O)Nc1nonc1/C(=N/O)Nc1ccc(F)c(Br)c1 (stereo not drawn) [Example 10, (Z)—N-(3-bromo-4-fluorophenyl)-N′-hydroxy-4-((1-(methylsulfonoimidamido)propan-2-yl)amino)-1,2,5-oxadiazole-3-carboximidamide] | 244 |
| O=S1(=NCCNc2nonc2/C(=N/O)Nc2ccc(F)c(Br)c2)CCOCC1 [Example 3, (Z)—N-(3-bromo-4-fluorophenyl)-N′-hydroxy-4-((2-((4-oxido-1,4λ^6-oxathian-4-ylidene)amino)ethyl)amino)-1,2,5-oxadiazole-3-carboximidamide] | 153 |
| CS(=N)(=O)NCCNc1nonc1C(=NO)Nc1ccc(F)c(Br)c1 (stereo not drawn) [Example 6, (Z)—N-(3-bromo-4-fluorophenyl)-N′-hydroxy-4-((2-(methylsulfonoimidamido)ethyl)amino)-1,2,5-oxadiazole-3-carboximidamide] | 63.7 |
| CS(C)(=O)=NCCNc1nonc1/C(=N/O)Nc1ccc(F)c(Br)c1 [Example 1, (Z)—N-(3-bromo-4-fluorophenyl)-4-((2-((dimethyl(oxo)-λ^6-sulfanylidene)amino)ethyl)amino)-N′-hydroxy-1,2,5-oxadiazole-3-carboximidamide] | 54 |
| CCS(=N)(=O)NCCNc1nonc1C(=NO)Nc1ccc(F)c(Br)c1 (stereo not drawn) [Example 7, (Z)—N-(3-bromo-4-fluorophenyl)-4-((2-(ethylsulfonoimidamido)ethyl)amino)-N′-hydroxy-1,2,5-oxadiazole-3-carboximidamide] | 6.6 |
| CCS(=O)(CC)=NCCNc1nonc1/C(=N/O)Nc1ccc(F)c(Br)c1 [Example 2, (Z)—N-(3-bromo-4-fluorophenyl)-4-((2-((diethyl(oxo)-λ^6-sulfanylidene)amino)ethyl)amino)-N′-hydroxy-1,2,5-oxadiazole-3-carboximidamide] | 270 |
| O=S1(=NCCNc2nonc2/C(=N/O)Nc2ccc(F)c(Br)c2)CCCCC1 [Example 4, (Z)—N-(3-bromo-4-fluorophenyl)-N′-hydroxy-4-((2-((1-oxidotetrahydro-2H-1λ^6-thiopyran-1-ylidene)amino)ethyl)amino)-1,2,5-oxadiazole-3-carboximidamide] | 477 |

Next, values leading:

| IC50 [nM] | Structure (SMILES) |
| --- | --- |
| 20.1 | CS(=N)(=O)NCCNc1nonc1/C(=N/O)Nc1ccc(F)c(C(F)(F)F)c1 (stereo not drawn) [Example 14, (Z)—N-(4-fluoro-3-(trifluoromethyl)phenyl)-N′-hydroxy-4-((2-(methylsulfonoamidimidamido)ethyl)amino)-1,2,5-oxadiazole-3-carboximidamide] |
| 54.3 | CS(=N)(=O)NCCNc1nonc1/C(=N/O)Nc1cccc(C(F)(F)F)c1 (stereo not drawn) [Example 15, (Z)—N′-hydroxy-4-((2-(methylsulfonoamidimidamido)ethyl)amino)-N-(3-(trifluoromethyl)phenyl)-1,2,5-oxadiazole-3-carboximidamide] |
| 12.3 | CS(=N)(=O)NCCNc1nonc1/C(=N/O)Nc1ccc(F)c(Cl)c1 (stereo not drawn) [Example 12, (Z)—N-(3-chloro-4-fluorophenyl)-N′-hydroxy-4-((2-(methylsulfonoimidamido)-ethyl)amino)-1,2,5-oxadiazole-3-carboximidamide] |
| 298 | CCS(=N)(=O)NCCNc1nonc1/C(=N/O)Nc1cccc(C(F)(F)F)c1 (stereo not drawn) [Example 16, (Z)-4-((2-(ethylsulfonoimidamido)ethyl)amino)-N′-hydroxy-N-(3-(trifluoromethyl)phenyl)-1,2,5-oxadiazole-3-carboximidamide] |
| 311 | CS(=N)(=O)NCCNc1nonc1/C(=N/O)Nc1ccc(F)c(C#N)c1 (stereo not drawn) [Example 13, (Z)—N-(3-cyano-4-fluorophenyl)-N′-hydroxy-4-((2-(methylsulfonoimidamido)-ethyl)amino)-1,2,5-oxadiazole-3-carboximidamide] |

Target: T1, IDO
Assay: IDO Cell-Based NEK Green Assay (NFK Green, N-formyl kynurenine level)
Details: Hela cells, 1 mM L-Tryptophan, 100 ng/mL recombinant human interferon-gamma, 2 days, NFK Green fluorescence
Procedure: IDO Cell-Based NEK Green Assay
Materials: RPMI 1640 (phenol red free) (Invitrogen Cat. No. 11835030), Fetal Bovine Serum (Invitrogen Cat. No. 10099141), Penicillin-Streptomycin (Invitrogen Gibco Cat. No. 15140-122), Cellular assay kit (NTRC, Cat. No. NTRC-GSCell-1K), DMSO (Sigma, Cat. No. D2650), 384 wells_compound plate (Greiner, Cat. No. 781280), 384 wells_assay plate (Greiner, Cat. No. 781091)
The concentrations of test compounds varied from 5 μM to 0.76 nM with 3-fold dilution, 10 points, in duplicates.
Hela cells were seeded at 8,000 cells per well with RPMI/phenol red free media containing 10% FBS in a 384-well tissue culture plate. Mixture of compounds and 1 mM L-Tryptophan were added to cells; and then the recombinant human interferon-gamma was added at the final concentration of 100 ng/mL to activate IDO signaling. The cells were incubated for 2 days in 37° C. incubator with 5% CO2. After that, NFK Green was used to detect the N-formyl kynurenine level by following the commercial kit instruction. The fluorescent signal was measured by Envision plate Reader (excitation, 400/25; emission, 510/20). Curves are fit by XLFIT5 as % inhibition vs. log [compound concentration] using a 4 parameters logistic model 205.
as §1

| IC50 [nM] | Structure (SMILES) |
| --- | --- |
| 14.5 | CS(C)(=O)=NCCNc1nonc1/C(=N/O)Nc1ccc(F)c(Cl)c1 [Example 28, (Z)-N-(3-chloro-4-fluorophenyl)-4-((2-((dimethyl(oxo)-λ^6-sulfanylidene)amino)ethyl)amino)-N′-hydroxy-1,2,5-oxadiazole-3-carboximidamide] |
| 8.2 | CCS(=N)(=O)NCCCNc1nonc1/C(=N/O)Nc1ccc(F)c(Br)c1 (stereo not drawn) [Example 24, (Z)-N-(3-bromo-4-fluorophenyl)-4-[(3-ethanesulfonoimidamidopropyl)amino]-N′-hydroxy-1,2,5-oxadiazole-3-carboximidamide] |
| 33.7 | CS(=N)(=N)CCNc1nonc1/C(=N/O)Nc1ccc(F)c(Cl)c1 [Example 35, (Z)-N-(3-chloro-4-fluorophenyl)-4-({2-[diimino(methyl)-λ^6-sulfanyl]ethyl}amino)-N′-hydroxy-1,2,5-oxadiazole-3-carboximidamide] |
| 14 | CS(=N)(=O)NCCCNc1nonc1/C(=N/O)Nc1ccc(F)c(Cl)c1 (stereo not drawn) [Example 26, (Z)-N-(3-chloro-4-fluorophenyl)-N′-hydroxy-4-[(3-methanesulfonoimidamidopropyl)amino]-1,2,5-oxadiazole-3-carboximidamide] |

System: not listed separately
Assay: Rat PK
Type: in vivo
Details: po, male SD rats, 5 mg/kg p.o., suspended in 0.5% methylcellulose in water, plasma
Procedure: Each test compounds was suspended in 0.5% methylcellulose in water.
Grouping male SD rats was administered with test compound at a dose of 5 mg/kg by oral. After administering, blood samples were collected at time points of 0.50, 1.0, 2.0, 4.0, 6.0, 8.0 and 24.0 h. Standard curve was plotted based on concentrations of the samples in a suitable range, and the concentration of test compounds in plasma samples were determined by using LC-MS/MS. Pharmacokinetic parameters were calculated according to plasma concentration-time curve by Phoenix WinNonLin 6.1 software.

| Structure (SMILES) | AUC(0-inf) [ng·h/mL] | AUC(0-t) [ng·h/mL] | Cmax [ng/mL] | half-life [h] |
| --- | --- | --- | --- | --- |
| CS(C)(=O)=NCCNc1nonc1/C(=N/O)Nc1ccc(F)c(Br)c1 [Example 1, (Z)—N-(3-bromo-4-fluorophenyl)-4-((2-((dimethyl(oxo)-λ^6-sulfanylidene)amino)ethyl)amino)-N′-hydroxy-1,2,5-oxadiazole-3-carboximidamide] | 4030 | 3840 | 1500 | 3.83 |
| CCS(=N)(=O)NCCNc1nonc1C(=NO)Nc1ccc(F)c(Br)c1 (stereo not drawn) [Example 7, (Z)—N-(3-bromo-4-fluorophenyl)-4-((2-(ethylsulfonoimidamido)ethyl)amino)-N′-hydroxy-1,2,5-oxadiazole-3-carboximidamide] | 1450 | 1440 | 496 | 3.47 |

Results, then the compound that gave them:

| AUC(0-inf) [ng·h/mL] | AUC(0-t) [ng·h/mL] | Cmax [ng/mL] | half-life [h] | Structure (SMILES) |
| --- | --- | --- | --- | --- |
| 1120 | 1100 | 469 | 1.19 | CS(C)(=O)=NCCNc1nonc1/C(=N/O)Nc1ccc(F)c(Cl)c1 [Example 28, (Z)-N-(3-chloro-4-fluorophenyl)-4-((2-((dimethyl(oxo)-λ^6-sulfanylidene)amino)ethyl)amino)-N′-hydroxy-1,2,5-oxadiazole-3-carboximidamide] |
| 924 | 880 | 169 | 2.48 | NS(=O)(=O)NCCNc1nonc1C(=NO)Nc1ccc(F)c(Br)c1 [Reference Compound 1, (Z)—N-(3-bromo-4-fluorophenyl)-N′-hydroxy-4-((2-(sulfamoylamino)ethyl)amino)-1,2,5-oxadiazole-3-carboximidamide, reference compound] |
